Laboratory results taken from ChEMBL document CHEMBL4308841, “Synthesis, in vitro antiproliferative activity, and kinase inhibitory effects of pyrazole-containing diarylureas and diarylamides” (Eur J Med Chem, 2018).

What was measured:
OVCAR-3 [1] = test: Growth inhibition of human OVCAR3 cells assessed as cell growth at 0.01 uM incubated for 48 hrs by sulforhodamine B assay relative to control; assay type: functional; details: OVCAR-3, 48 h, read-out: Activity
UO-31 = test: Growth inhibition of human UO31 cells incubated for 48 hrs by sulforhodamine B assay; assay type: functional, cell-based; details: UO-31, 48 h
SK-MEL-2 = test: Growth inhibition of human SK-MEL-2 cells assessed as cell growth at 1 uM incubated for 48 hrs by sulforhodamine B assay relative to control; assay type: functional; details: SK-MEL-2, 48 h, read-out: Activity
KM12 = test: Growth inhibition of human KM12 cells assessed as cell growth at 0.1 uM incubated for 48 hrs by sulforhodamine B assay relative to control; assay type: functional; details: KM12, 48 h, read-out: Activity
T47D = test: Growth inhibition of human T47D cells assessed as cell growth at 0.1 uM incubated for 48 hrs by sulforhodamine B assay relative to control; assay type: functional; details: read-out: Activity
NCI-H23 = test: Growth inhibition of human NCI-H23 cells incubated for 48 hrs by sulforhodamine B assay; assay type: functional, cell-based; details: NCI-H23, 48 h
MDA-MB-231 = test: Growth inhibition of human MDA-MB-231 cells assessed as cell growth at 1 uM incubated for 48 hrs by sulforhodamine B assay relative to control; assay type: functional; details: MDA-MB-231, 48 h, read-out: Activity
OVCAR-3 [2] = test: Growth inhibition of human OVCAR3 cells assessed as cell growth at 100 uM incubated for 48 hrs by sulforhodamine B assay relative to control; assay type: functional; details: OVCAR-3, 48 h, read-out: Activity
NCI/ADR-RES = test: Growth inhibition of human NCI/ADR-RES cells incubated for 48 hrs by sulforhodamine B assay; assay type: functional, cell-based
NCI-H522 = test: Growth inhibition of human NCI-H522 cells assessed as cell growth at 0.01 uM incubated for 48 hrs by sulforhodamine B assay relative to control; assay type: functional; details: NCI-H522, 48 h, read-out: Activity
HL-60(TB) = test: Growth inhibition of human HL-60(TB) cells incubated for 48 hrs by sulforhodamine B assay; assay type: functional, cell-based; details: HL-60, 48 h
NCI-H322M = test: Growth inhibition of human NCI-H322M cells assessed as cell growth at 0.1 uM incubated for 48 hrs by sulforhodamine B assay relative to control; assay type: functional; details: read-out: Activity
Malme-3M = test: Growth inhibition of human MALME-3M cells assessed as cell growth at 100 uM incubated for 48 hrs by sulforhodamine B assay relative to control; assay type: functional; details: read-out: Activity
BT-549 [3] = test: Growth inhibition of human BT549 cells incubated for 48 hrs by sulforhodamine B assay; assay type: functional, cell-based; details: BT-549, 48 h
CCRF-CEM [4] = test: Growth inhibition of human CCRF-CEM cells assessed as cell growth at 0.1 uM incubated for 48 hrs by sulforhodamine B assay relative to control; assay type: functional; details: read-out: Activity
BT-549 [5] = test: Growth inhibition of human BT549 cells assessed as cell growth at 100 uM incubated for 48 hrs by sulforhodamine B assay relative to control; assay type: functional; details: BT-549, 48 h, read-out: Activity
ACHN = test: Growth inhibition of human ACHN cells assessed as cell growth at 0.01 uM incubated for 48 hrs by sulforhodamine B assay relative to control; assay type: functional; details: read-out: Activity
SF-539 = test: Growth inhibition of human SF539 cells incubated for 48 hrs by sulforhodamine B assay; assay type: functional, cell-based; details: SF-539, 48 h
CCRF-CEM [6] = test: Growth inhibition of human CCRF-CEM cells assessed as cell growth at 1 uM incubated for 48 hrs by sulforhodamine B assay relative to control; assay type: functional; details: read-out: Activity
RPMI-8226 = test: Growth inhibition of human RPMI8226 cells assessed as cell growth at 1 uM incubated for 48 hrs by sulforhodamine B assay relative to control; assay type: functional; details: RPMI-8226, 48 h, read-out: Activity
OVCAR-8 = test: Growth inhibition of human OVCAR8 cells incubated for 48 hrs by sulforhodamine B assay; assay type: functional, cell-based; details: OVCAR-8, 48 h
DU-145 = test: Growth inhibition of human DU145 cells incubated for 48 hrs by sulforhodamine B assay; assay type: functional, cell-based; details: DU-145, 48 h
UACC-257 = test: Growth inhibition of human UACC257 cells incubated for 48 hrs by sulforhodamine B assay; assay type: functional, cell-based; details: UACC-257, 48 h
SK-MEL-28 [7] = test: Growth inhibition of human SK-MEL-28 cells assessed as cell growth at 0.1 uM incubated for 48 hrs by sulforhodamine B assay relative to control; assay type: functional; details: SK-MEL-28, 48 h, read-out: Activity
SK-MEL-28 [8] = test: Growth inhibition of human SK-MEL-28 cells assessed as cell growth at 0.01 uM incubated for 48 hrs by sulforhodamine B assay relative to control; assay type: functional; details: SK-MEL-28, 48 h, read-out: Activity
PC-3 = test: Growth inhibition of human PC3 cells assessed as cell growth at 1 uM incubated for 48 hrs by sulforhodamine B assay relative to control; assay type: functional; details: PC-3, 48 h, read-out: Activity
CAKI-1 = test: Growth inhibition of human Caki1 cells assessed as cell growth at 1 uM incubated for 48 hrs by sulforhodamine B assay relative to control; assay type: functional; details: CAKI-1, 48 h, read-out: Activity
MOLT-4 = test: Growth inhibition of human MOLT4 cells assessed as cell growth at 0.01 uM incubated for 48 hrs by sulforhodamine B assay relative to control; assay type: functional; details: MOLT-4, 48 h, read-out: Activity
[9] = read-out: LC50 (the source's name)
[10] = read-out: pLC50 (the source's name) (converted)

COc1cc(Cl)cc(-c2nn(-c3cccc(NC(=O)c4ccc(N5CCOCC5)c(C(F)(F)F)c4)c3)cc2-c2ccncc2)c1
growth at 0.01 µM (OVCAR-3 [1]): 100% | IC50 (UO-31): 4.5 µM | GI50 (UO-31; read-out: GI50): 4.5 µM | CC50 (UO-31; [9]): > 100 µM | TGI (UO-31; read-out: TGI): > 100 µM | GI50 (UO-31; read-out: pGI50 (converted)): 4.47 µM | CC50 (UO-31; [10]): > 100 µM | TGI (UO-31; read-out: pTGI (converted)): > 100 µM | growth at 1 µM (SK-MEL-2): 98% | growth at 0.1 µM (KM12): 95% | growth at 0.1 µM (T47D): 95% | GI50 (NCI-H23; read-out: GI50): 3.07 µM | LC50 (NCI-H23; read-out: LC50): > 100 µM | TGI (NCI-H23; read-out: TGI): > 100 µM | GI50 (NCI-H23; read-out: pGI50 (converted)): 30.9 µM | LC50 (NCI-H23; read-out: pLC50 (converted)): > 100 µM | TGI (NCI-H23; read-out: pTGI (converted)): > 100 µM | growth at 1 µM (MDA-MB-231): 78% | growth at 100 µM (OVCAR-3 [2]): 44% | GI50 (NCI/ADR-RES; read-out: GI50): 5.17 µM | CC50 (NCI/ADR-RES; [9]): > 100 µM | TGI (NCI/ADR-RES; read-out: TGI): > 100 µM | GI50 (NCI/ADR-RES; read-out: pGI50 (converted)): 6.17 µM | CC50 (NCI/ADR-RES; [10]): > 100 µM | TGI (NCI/ADR-RES; read-out: pTGI (converted)): > 100 µM | growth at 0.01 µM (NCI-H522): 94% | GI50 (HL-60(TB); read-out: GI50): 4.19 µM | LC50 (HL-60(TB); read-out: LC50): > 100 µM | TGI (HL-60(TB); read-out: TGI): 33.2 µM | GI50 (HL-60(TB); read-out: pGI50 (converted)): 4.17 µM | LC50 (HL-60(TB); read-out: pLC50 (converted)): > 100 µM | TGI (HL-60(TB); read-out: pTGI (converted)): 33.1 µM | growth at 0.1 µM (NCI-H322M): 94% | growth at 100 µM (Malme-3M): 23% | GI50 (BT-549 [3]; read-out: GI50): 5.9 µM | CC50 (BT-549 [3]; [9]): > 100 µM | TGI (BT-549 [3]; read-out: TGI): > 100 µM | GI50 (BT-549 [3]; read-out: pGI50 (converted)): 89.1 µM | CC50 (BT-549 [3]; [10]): > 100 µM | TGI (BT-549 [3]; read-out: pTGI (converted)): > 100 µM | growth at 0.1 µM (CCRF-CEM [4]): 101% | growth at 100 µM (BT-549 [5]): 49% | growth at 0.01 µM (ACHN): 100% | GI50 (SF-539; read-out: GI50): 3.74 µM | CC50 (SF-539; [9]): > 100 µM | TGI (SF-539; read-out: TGI): > 100 µM | GI50 (SF-539; read-out: pGI50 (converted)): 3.72 µM | CC50 (SF-539; [10]): > 100 µM | TGI (SF-539; read-out: pTGI (converted)): > 100 µM | growth at 1 µM (CCRF-CEM [6]): 56% | growth at 1 µM (RPMI-8226): 59% | GI50 (OVCAR-8; read-out: GI50): 6.33 µM | CC50 (OVCAR-8; [9]): > 100 µM | TGI (OVCAR-8; read-out: TGI): > 100 µM | GI50 (OVCAR-8; read-out: pGI50 (converted)): 6.31 µM | CC50 (OVCAR-8; [10]): > 100 µM | TGI (OVCAR-8; read-out: pTGI (converted)): > 100 µM | GI50 (DU-145; read-out: GI50): > 100 µM | CC50 (DU-145; [9]): > 100 µM | TGI (DU-145; read-out: TGI): > 100 µM | GI50 (DU-145; read-out: pGI50 (converted)): > 100 µM | CC50 (DU-145; [10]): > 100 µM | TGI (DU-145; read-out: pTGI (converted)): > 100 µM | GI50 (UACC-257; read-out: GI50): 2.17 µM | CC50 (UACC-257; [9]): > 100 µM | TGI (UACC-257; read-out: TGI): 69.1 µM | GI50 (UACC-257; read-out: pGI50 (converted)): 21.9 µM | CC50 (UACC-257; [10]): > 100 µM | TGI (UACC-257; read-out: pTGI (converted)): 69.2 µM | growth at 0.1 µM (SK-MEL-28 [7]): 103% | growth at 0.01 µM (SK-MEL-28 [8]): 97% | growth at 1 µM (PC-3): 73% | growth at 1 µM (CAKI-1): 94% | growth at 0.01 µM (MOLT-4): 100%
